Data set [1] relates to specific cell types. The settings on record: cited from earlier work.
Data set [2] deals with hM3DGq-expressing neurons. The experiment in a line: Cell-attached recording of CA1 PC in slice after bath application of CNO. The class given is cell-based, mice. The settings on record: cell-attached mode.
Data set [3] relates to CA1 neurons. The experiment in a line: AAV-based activity reporter mKate2 labelling of recently activated CA1 neurons. In kind it is in vivo, mice. The settings on record: 24 h post-KA injection. As for the experimental part:
First, tests were performed to determine whether either of these forms of perisomatic inhibition (by PV-expressing INs and CCK-expressing INs) are differentially regulated onto Fos-expressing neurons compared to neighboring non-Fos-expressing neurons. Mice were exposed to a series of novel environments, which robustly activated Fos in a sparse subset of CA1 PCs (see e.g., FIG. 1A, FIG. 7A-FIG. 7D). To label these Fos-expressing neurons, an adeno-associated virus (AAV)-based reporter was used that expresses the fluorescent protein mKate2 selectively in recently activated neurons (see e.g., FIG. 1B); see e.g., Fenno et al. Nat Methods 11, 763-772, (2014), the content of which is incorporated herein by reference in its entirety. Using this reporter, a significant increase was detected in the number of recently activated neurons (mKate2^+) in mice exposed to 2-3 days (see e.g., FIG. 1D) of novel environments (NE) compared to control mice housed under standard (Strd) conditions (see e.g., FIG. 1C). This 2-3d timepoint was therefore appropriate for assessing the long-lasting effects of Fos and its late-response target gene(s), which were usually activated within 1-12 hours (h) of stimulus onset (see e.g., FIG. 1D).
Intraperitoneal (i.p.) injections.
Histology. Mice were anaesthetized with 10 mg/mL ketamine and 1 mg/mL xylazine in phosphate buffered saline (PBS) via i.p. injection. […]

Data set [4] relates to CA1. The experiment in a line: Cell health in CA1 24 h post-KA (Hoechst, NeuN, cleaved-caspase 3 immunostaining). The settings on record: within 24 h of KA injection. In kind it is in vivo, mice. As for the experimental part: FIG. 8A-8Q is a series of schematics, images, and graphs showing IN-to-CA1 PC paired recordings and cell health parameters in 24 h post-KA condition. FIG. 8A and FIG. 8G are schematics of the genetic strategy to label PV-INs (PV^Cre; Ai14; FIG. 8A) or CCK-INs (D1×5/6^Flp; CCK^Cre; Ai65; FIG. 8G). FIG. 8B and FIG. 8H are representative images of tdTomato fluorescence in the CA1 field. Scale: 100 μm. N=2 mice per line. FIG. 8C and FIG. 8I are bar graphs showing quantification of the fraction of (FIG. 8C) PV- or (FIG. 8I) CCK-to-CA1 PC synaptically-connected pairs from the overall number of pairs recorded in both vehicle (Veh.) and 24 h post-KA mice. In FIG. 8C, Veh., n=13/22; KA, n=19/30; in FIG. 8I, Veh., n=16/40; KA, […], where n=number of connections/total pairs. FIG. 8D and FIG. 8J are dot plots showing quantification of the maximum firing rate of (FIG. 8D) PV- or (FIG. 8J) CCK-INs from connected pairs. […] FIG. 8E and FIG. 8K are dot plots showing quantification of spike adaptation ratio of (FIG. 8E) PV- or (FIG. 8J) CCK-INs from connected pairs as in FIG. 8D and FIG. 8J, respectively. FIG. 8F and FIG. 8L are line graphs showing quantification of paired pulse ratios (PPRs) of uIPSCs at the indicated interstimulus intervals (ISI) for (FIG. 8F) PV- (Veh., n=13/6; KA, n=19/7) or (FIG. 8L) CCK- (Veh., n=16/9; KA, n=16/4) to-CA1 PC connected pairs, where n=number of pairs/number of mice. […]

On to “secretoneurin (TNEIVEEQYTPQSLATLESVFQELGKLTGPNNQ; listed as Homo sapiens) [33 aa]”, for which the “chemotaxic effects on specific cell types” value in data set [1] was “chemotaxic effects”.
Turning to `C[N+]1([O-])CCN(C2=Nc3cc(Cl)ccc3Nc3ccccc32)CC1` [CNO, clozapine N-oxide], in data set [2], the “firing rate of hM3DGq-expressing CA1 PC” value is listed as “firing rate increases”.
Regarding `C=C(C)[C@H]1CN[C@H](C(=O)O)[C@H]1CC(=O)O` [kainic acid], in data set [3], the “average percentage of mKate2+ neurons over total number of DAPI cells” value came out at 96%. For the same molecule, the “cell death (Hoechst+, NeuN+, cleaved-caspase+ cells per 40-μm section, all layers of CA1)” value in data set [4] is given as “did not induce cell death”.

The values above are taken from patent US20240034765A1, “SCG2 NEUROPEPTIDES AND USES THEREOF” (PRESIDENT AND FELLOWS OF HARVARD COLLEGE, priority 2020, published 2024).
